Laboratory results from patent US20080261932A1, “METHODS AND COMPOSITIONS FOR THE PREVENTION AND/OR TREATMENT OF AN EX[…] ASTHMA” (Chiesi Farmaceutici S.p.A., priority 2007, published 2008).

Experiment: Tolerability of high, cumulative doses in asthmatic patients on maintenance treatment with the combination (double blind clinical comparison study)
Details: 10 puffs cumulative dose in addition to morning maintenance dose (2 puffs), assessed over 12 hours after dosing, vs placebo / comparator
Procedure: A study is performed to evaluate the tolerability of high, cumulative doses of the combination formoterol/beclometasone dipropionate or formoterol compared to a placebo when administered in asthmatic patients on regular treatment with the combination at the maximum recommended daily dose (6 microgram of formoterol/100 microgram beclometasone dipropionate, 2 puffs bid.: corresponding to a total daily dose of 24 microgram of formoterol and of 400 microgram of beclometasone dipropionate). The study is a double blind clinical comparison study of ten puffs of the pressurized metered dose inhaler solution formulation of the combination of Example 1 (formoterol 6 microgram+beclometasone dipropionate 100 microgram) or formoterol (6 microgram) or placebo during the maintenance treatment of asthma with 2 puffs bid. of the combination formoterol/beclometasone dipropionate of Example 1.
Cumulative doses (10 puffs) are administered on 3 separated days in addition to the morning dose maintenance (2 puffs). The primary endpoint is serum potassium, assessed over a 12 hours period after the cumulative doses.

What does the source list for COc1ccc(CC(C)NCC(O)c2ccc(O)c(NC=O)c2)cc1 (racemic) [Formoterol, (±) N-[2-hydroxy-5-(1-hydroxy-2-((2-(4-methoxyphenyl)-1-methylethyl)amino)ethyl)phenyl]formamide]?
serum potassium level: significantly greater decrease in serum potassium level than the combination or placebo; serum potassium level (listed as formoterol): significantly greater decrease in serum potassium level than the either the combination or the placebo
